The values below come from ChEMBL document CHEMBL1150182, “Lissoclinolide, the first non-nitrogenous metabolite from a Lissoclinum tunicate” (J Nat Prod, 1990).

Activity calls are given as the source filed them. No cut-off for these calls is given here.

The subject of the test is Escherichia coli. Briefly: Antibacterial activity against Escherichia coli. In kind it is functional, organism-based.

For `O=C1O/C(=C\C=C\CO)C=C1/C=C/CO`, the result was inactive.
